Article PMC12133982, “Predominant T-cell epitopes of SARS-CoV-2 restricted by multiple prevalent HLA-B and HLA-C allotypes in Northeast Asia” (Frontiers in Immunology, 2025)
Peptide text beside a SMILES is read from it.

Assays:
HLA-C0801 = HLA-C0801 (Homo sapiens, UniProt P10321, A176T/A330V/A97T/C350S/D114A/D138N/D33Y/E201K/E299G/L171W/L218V/M285V/M309V/M331V/P208H/Q277E/Q291P/R59Q/S123Y/S140F/S297R/S48A/T329A/T363A/V319A/V328M); assay: Competitive peptide binding assay, CIR-C0801; conditions: HMy2.CIR-C0801 cells, reference Cy5-[…], class from inhibition at 5 and 15 μM, flow cytometry MFI; read-out: Binding affinity with HLA-C0801
Experimental: (§1) Then, competitive peptide binding assays were performed.

HLA-C0602 = HLA-C0602 (Homo sapiens, UniProt P10321, A176E/A330V/C350S/L171W/L180W/L218V/M285V/M309V/M331V/N104K/P208H/Q277E/Q291P/R121W/S101N/S123Y/S297R/T329A/T363A/V319A/V328M); assay: Competitive peptide binding assay, CIR-C0602
HLA-C0304 = HLA-C0304 (Homo sapiens, UniProt P10321, A176E/A330V/A97T/C25G/C350S/D114A/D33Y/E197K/L119I/L127V/L171W/L218V/M285V/M309V/M331V/P208H/Q277E/Q291P/R243W/R45H/S123Y/S140Y/S297R/S48A/T118I/T187L/T329A/T363A/V319A); assay: Competitive peptide binding assay, CIR-C0304; conditions: HMy2.CIR-C0304 cells, reference Cy5-[…], class from inhibition at 5 and 15 μM, flow cytometry MFI; read-out: Binding affinity with HLA-C0304
Experimental: as §1

HLA-C0102 = HLA-C0102 (Homo sapiens, UniProt P10321, A176E/A330V/A35S/A97T/C350S/D114A/D33F/L171W/L180R/L218V/M285V/M309V/M331V/P208H/Q277E/Q291P/R121W/R243W/R30K/S123C/S140Y/S297R/T329A/T363A/V272M/V319A); assay: Competitive peptide binding assay, CIR-C0102; conditions: HMy2.CIR-C0102 cells, reference Cy5-[…], class from inhibition at 5 and 15 μM, flow cytometry MFI; read-out: Binding affinity with HLA-C0102
Experimental: as §1

HLA-C0303 = HLA-C0303 (Homo sapiens, UniProt P10321, A176E/A330V/A97T/C25G/C350S/D114A/D33Y/E197K/G115R/L119I/L127V/L171W/L218V/M285V/M309V/M331V/P208H/Q277E/Q291P/R243W/R45H/S123Y/S140Y/S297R/S48A/T118I/T187L/T329A/T363A/V319A); assay: Competitive peptide binding assay, CIR-C0303; conditions: HMy2.CIR-C0303 cells, reference Cy5-[…], class from inhibition at 5 and 15 μM, flow cytometry MFI; read-out: Binding affinity with HLA-C0303
Experimental: as §1

HLA-C0701 = HLA-C0701 (Homo sapiens, UniProt P10321, K90N/S123Y); assay: Competitive peptide binding assay, CIR-C0701; conditions: HMy2.CIR-C0701 cells, reference Cy5-[…], class from inhibition at 5 and 15 μM, flow cytometry MFI; read-out: Binding affinity with HLA-C 0701
Experimental: as §1

HLA-C0302 = HLA-C0302 (Homo sapiens, UniProt P10321, A176E/A330V/A97T/C25G/C350S/D114A/D33Y/E197K/L127V/L171W/L218V/M285V/M309V/M331V/P208H/Q277E/Q291P/R243W/R45H/S123Y/S297R/S48A/T118I/T187L/T329A/T363A/V319A); assay: Competitive peptide binding assay, CIR-C0302; conditions: HMy2.CIR-C0302 cells, reference Cy5-[…], class from inhibition at 5 and 15 μM, flow cytometry MFI; read-out: Binding affinity with HLA-C0302
Experimental: as §1

HLA-C0702 = HLA-C0702 (Homo sapiens, UniProt P10321); assay: Competitive peptide binding assay, CIR-C0702
HLA-C0401 = HLA-C0401 (Homo sapiens, UniProt P10321, A176E/A330V/A35S/A73E/C25G/C350S/D138N/D33S/E299K/L171W/L180R/L218V/M285V/M309V/M331V/N104K/P208H/Q277E/Q291P/R243W/R38W/S101N/S123F/S140F/S297R/S48A/T329A/T363A/V319A/V327M); assay: Competitive peptide binding assay, CIR-C0401; conditions: HMy2.CIR-C0401 cells, reference Cy5-[…], class from inhibition at 5 and 15 μM, flow cytometry MFI; read-out: Binding affinity with HLA-C0401
Experimental: as §1

HLA-C1202 = HLA-C1202 (Homo sapiens, UniProt P10321, A176E/A330V/C350S/D114A/D33Y/L171W/L180W/L218V/M285V/M309V/M331V/P208H/Q277E/Q291P/S123Y/S297R/S48A/T329A/T363A/V319A/V328M); assay: Competitive peptide binding assay, CIR-C1202; conditions: HMy2.CIR-C1202 cells, reference Cy5-[…], class from inhibition at 5 and 15 μM, flow cytometry MFI; read-out: Binding affinity with HLA-C1202
Experimental: as §1

HLA-B1502 = HLA-B1502 (Homo sapiens, UniProt P01889, A329T/A93T/A95T/C349S/D201E/D98Y/E187L/E204Q/E69M/E70A/H137Y/K202T/L119I/Q94N/R155S/R180L/S121R/S35A/S48A/T118I/V306I/V36M/Y140S/Y91S); assay: Competitive peptide binding assay, CIR-B1502; conditions: HMy2.CIR-B1502 cells, reference Cy5-[…], class from inhibition at 5 and 15 μM, flow cytometry MFI; read-out: Binding affinity with HLA-B1502
Experimental: as §1

HLA-B5801 = HLA-B5801 (Homo sapiens, UniProt P01889, A329T/C349S/D201E/D98Y/E176V/E187L/E204Q/E69T/G107R/I218V/I90N/K202T/L105A/L119I/N104I/N87E/Q89R/Q94S/R106L/R155S/R180L/R86G/S101N/S121R/S35A/S48A/T118I/V127L/V306I/V36M/Y140S/Y91M); assay: Competitive peptide binding assay, CIR-B5801; conditions: HMy2.CIR-B5801 cells, reference Cy5-[…], class from inhibition at 5 and 15 μM, flow cytometry MFI; read-out: Binding affinity with HLA-B5801
Experimental: as §1

HLA-B1501 = HLA-B1501 (Homo sapiens, UniProt P01889, A329T/A93T/A95T/C349S/D201E/D98Y/E187L/E204Q/E69M/E70A/K202T/N87E/Q94N/R155S/R180W/S121R/S35A/S48A/V306I/V36M/Y140S/Y91S); assay: Competitive peptide binding assay, CIR-B1501; conditions: HMy2.CIR-B1501 cells, reference Cy5-[…], class from inhibition at 5 and 15 μM, flow cytometry MFI; read-out: Binding affinity with HLA-B1501
Experimental: as §1

HLA-B4601 = HLA-B4601 (Homo sapiens, UniProt P01889, A329T/A93R/C349S/D201E/E100V/E187L/E204Q/E69M/E70A/I90K/K202T/N87E/R155S/R180W/S121R/S35A/S48A/V306I/V36M/Y140S); assay: Competitive peptide binding assay, CIR-B4601; conditions: HMy2.CIR-B4601 cells, reference Cy5-[…], class from inhibition at 5 and 15 μM, flow cytometry MFI; read-out: Binding affinity with HLA-B4601
Experimental: as §1

HLA-B3501 = HLA-B3501 (Homo sapiens, UniProt P01889, A329T/A93T/A95T/C349S/D201E/D98Y/E176V/E187L/E204Q/E69T/I218V/K202T/L119I/Q94N/R155S/R180L/S121R/S35A/S48A/T118I/V127L/V306I/V36M/Y140S/Y91F); assay: Competitive peptide binding assay, CIR-B3501; conditions: HMy2.CIR-B3501 cells, reference Cy5-[…], class from inhibition at 5 and 15 μM, flow cytometry MFI; read-out: Binding affinity with HLA-B3501
Experimental: as §1

HLA-B1302 = HLA-B1302 (Homo sapiens, UniProt P01889, A65T/A93T/A95T/D138N/D201E/D98Y/E176V/E204Q/E69M/E70A/G107R/K202T/L105A/L119W/N104T/N87E/Q94N/R106L/R155S/R169L/R180L/S101N/S121T/S35A/S48T/V127L/V36M/Y140L/Y91S); assay: Competitive peptide binding assay, CIR-B1302; conditions: HMy2.CIR-B1302 cells, reference Cy5-MMWYWGPSL, class from inhibition at 5 and 15 μM, flow cytometry MFI; read-out: Binding affinity with HLA-B1302
Experimental: as §1

HLA-B5101 = HLA-B5101 (Homo sapiens, UniProt P01889, A329T/A93T/A95T/C349S/D138N/D201E/D98Y/E187L/E204Q/E69T/G107R/I218V/K202T/L105A/L119W/N104I/Q94N/R106L/R155S/R180L/S101N/S121T/S35A/S48A/V306I/V36M/Y195H/Y91F); assay: Competitive peptide binding assay, CIR-B5101; conditions: HMy2.CIR-B5101 cells, reference Cy5-[…], class from inhibition at 5 and 15 μM, flow cytometry MFI; read-out: Binding affinity with HLA-B5101
Experimental: as §1

HLA-B4801 = HLA-B4801 (Homo sapiens, UniProt P01889, A269T/A93T/A95T/D138N/D98Y/E176V/N87E/Q94N/R180L/T167S/W171L/Y91S); assay: Competitive peptide binding assay, CIR-B4801; conditions: HMy2.CIR-B4801 cells, reference Cy5-[…], class from inhibition at 5 and 15 μM, flow cytometry MFI; read-out: Binding affinity with HLA-B4801
Experimental: as §1

## CC[C@H](C)[C@H](NC(=O)[C@H](C)NC(=O)[C@H](C)NC(=O)[C@H](CC(N)=O)NC(=O)CNC(=O)[C@H](CC(=O)O)NC(=O)[C@H](CCC(N)=O)NC(=O)[C@H](C)NC(=O)[C@@H](N)Cc1ccccc1)C(=O)O [Epitope M22] (H-FAQDGNAAI-OH; N-terminus and C-terminus assumed)
HLA-C0801
  IC50: < 5 µM
HLA-C0602
  IC50: > 15 µM
HLA-C0304
  IC50: 5 to 15 µM
HLA-C0102
  IC50: > 15 µM
HLA-C0303
  IC50: > 15 µM
HLA-C0701
  IC50: > 15 µM
HLA-C0302
  IC50: < 5 µM

## C[C@H](NC(=O)[C@H](Cc1ccc(O)cc1)NC(=O)[C@H](C)NC(=O)[C@@H](N)Cc1ccccc1)C(=O)N[C@@H](CC(N)=O)C(=O)N[C@@H](CCCNC(=N)N)C(=O)N[C@@H](CC(N)=O)C(=O)N[C@@H](CCCNC(=N)N)C(=O)N[C@@H](Cc1ccccc1)C(=O)O [Epitope M43] (H-FAYANRNRF-OH; N-terminus and C-terminus assumed)
HLA-C0702
  IC50: 5 to 15 µM
HLA-C0602
  IC50: 5 to 15 µM
HLA-C0102
  IC50: > 15 µM
HLA-C0401
  IC50: > 15 µM
HLA-C0701
  IC50: < 5 µM

## CC[C@H](C)[C@H](N)C(=O)N[C@@H](C)C(=O)N[C@@H](CCSC)C(=O)N[C@@H](C)C(=O)N[C@@H](CS)C(=O)N[C@@H](CC(C)C)C(=O)N[C@H](C(=O)NCC(=O)N[C@@H](CC(C)C)C(=O)O)C(C)C [Epitope M44] (H-IAMACLVGL-OH; N-terminus and C-terminus assumed)
HLA-C0702
  IC50: > 15 µM
HLA-C0801
  IC50: > 15 µM
HLA-C0602
  IC50: > 15 µM
HLA-C0304
  IC50: > 15 µM
HLA-C0102
  IC50: < 5 µM
HLA-C0303
  IC50: > 15 µM
HLA-C0701
  IC50: > 15 µM
HLA-C0302
  IC50: < 5 µM

## CSCC[C@H](NC(=O)[C@H](CO)NC(=O)[C@H](CCCNC(=N)N)NC(=O)[C@@H](NC(=O)[C@H](CCCNC(=N)N)NC(=O)[C@H](C)NC(=O)[C@@H](N)Cc1ccccc1)[C@@H](C)O)C(=O)N[C@@H](Cc1c[nH]c2ccccc12)C(=O)N[C@@H](CO)C(=O)N[C@@H](Cc1ccccc1)C(=O)O [Epitope M71] (H-FARTRSMWSF-OH; N-terminus and C-terminus assumed)
HLA-C0702
  IC50: 5 to 15 µM
HLA-C0801
  IC50: > 15 µM
HLA-C0602
  IC50: > 15 µM
HLA-C0401
  IC50: > 15 µM
HLA-C0701
  IC50: 5 to 15 µM
HLA-C0302
  IC50: < 5 µM

## CC(C)C[C@H](NC(=O)[C@H](Cc1ccccc1)NC(=O)[C@@H](NC(=O)[C@@H](N)C(C)C)C(C)C)C(=O)N[C@@H](Cc1c[nH]cn1)C(=O)N[C@H](C(=O)N[C@H](C(=O)N[C@@H](Cc1ccc(O)cc1)C(=O)N[C@H](C(=O)O)C(C)C)[C@@H](C)O)C(C)C [Epitope M131] (H-VVFLHVTYV-OH; N-terminus and C-terminus assumed)
HLA-C0702
  IC50: > 15 µM
HLA-C1202
  IC50: > 15 µM
HLA-C0304
  IC50: 5 to 15 µM
HLA-C0102
  IC50: 5 to 15 µM
HLA-C0302
  IC50: > 15 µM

## CC(C)C[C@H](NC(=O)[C@H](CC(=O)O)NC(=O)[C@@H](NC(=O)[C@H](CC(=O)O)NC(=O)[C@@H](NC(=O)[C@H](Cc1c[nH]cn1)NC(=O)[C@H](CO)NC(=O)[C@H](CCC(=O)O)NC(=O)[C@H](C)N)C(C)C)[C@@H](C)O)C(=O)O [Epitope Y198] (H-AESHVDTDL-OH; N-terminus and C-terminus assumed)
HLA-B1502
  IC50: > 15 µM
HLA-B5801
  IC50: > 15 µM
HLA-B1501
  IC50: > 15 µM
HLA-B4601
  IC50: > 15 µM
HLA-B3501
  IC50: > 15 µM
HLA-B1302
  IC50: 5 to 15 µM
HLA-B5101
  IC50: > 15 µM
HLA-B4801
  IC50: > 15 µM
